Patent US20210115406A1, “HOST-BIOME INTERACTIONS” (EMULATE, INC., priority 2018, published 2021)

Experiments:
[1] = system: Airway cells; assay: Permeability of airway cells to Imipenem on Airway chip; assay type: cell-based; settings: at lower concentrations
Method: More specifically, in one embodiment of an Airway on-chip, duplicate chips are infected with PA 5919 WT or PA 5890 Mutant as described herein. Then, Imipenem is added to apical and basolateral fluids (cell media) for treatment with Imipenem at 50, 100 and 500 μg/ml for 24 hours with at least one chip without Imipenem. At 24 h post treatment, wash cells 3× to remove the test drug, i.e. antibiotic Imipenem. Cells lysed with 1% Triton for 10 minutes on chip, then the lyste is collected from the chip's channels. Lysates are serially diluted for CFU quantification. N=2
Assay readouts: Viability of extracellular bacteria (apical sampling). Viability of intracellular bacteria (cell lysis and sampling). Two-way ANOVA with Dunnett's post-test **<0.05, **<0.001 (compared to untreated).

[2] = system: Lamina Propria Immune Cells; assay: Steroidal treatment of lamina propria immune cells on Intestine-Chip; assay type: cell-based, human; settings: 10 μM (10X clinically relevant dosage); before and after challenge with PAM2CSK4; ulcerative colitis patients
[3] = system: Airway On-Chip cells; assay: TUNEL apoptosis staining on Airway On-Chip; assay type: cell-based; settings: 3 μM for 3 h at 37° C., positive control
Method: One embodiment of an Airway On-Chip is infected as described above for 2 hours and then treated 50 μg/ml tetracycline for 24 h (top and bottom channels under flow) for 24 h in order to limit bacterial replication (to avoid over-replication and cell lifting). Using this methodology, we performed longer infections on an airway chip and avoided cell death at 24 h. At 24 h, chips are fixed with 4% paraformaldehyde for 15 minutes and subsequently permeabilized with 0.25% triton in PBS. Apoptosis staining is performed following the Click-iT™ Plus TUNEL Assay for In Situ Apoptosis Detection, Alexa Fluor 647 assay: Click-iT™ Plus TUNEL Assay, Thermo Fisher Scientific Inc., 6 November 2017.
The TUNEL assay is based on the incorporation of modified dUTPs by the enzyme terminal deoxynucleotidyl transferase (TdT) at the 3′-OH ends of fragmented DNA, a hallmark as well as the ultimate determinate of apoptosis. Click-iT™ Plus TUNEL assay with the Alexa Fluor™ 647 dye is utilized to detect the fragment DNA (purple), nuclei are labelled with DAPI.
Staurosporin, a prototypical ATP-competitive kinase inhibitor, is used as a positive control in this assay. […] As an additional positive control, chips are treated with 1 unit of DNAse I for 30 minutes at room temperature to induce TUNEL positive DNA strand breaks.

[4] = system: Caco-2 Intestine-Chip; assay: Bacterial colonization, attachment and titration on Intestine-Chip; assay type: cell-based, human; settings: SEM images of the Intestine-Chip
Excerpt: Top Channel: Caco-2. Day 1: Connect to flow. Day 3: Inoculation and Readouts: Imaging; Permeability; Bacterium Titer; etc. Day 8: Inflammatory Challenge. Readouts: Imaging; Permeability; Cytokines; Bacterium Titer; etc. Day 8 +4 hrs: Readouts: Imaging; Permeability; Cytokines; Bacterium Titer; etc. Day 8 +14 hrs: Readouts: Permeability; Cytokines; Effluent Titer; etc. Day 8 +14 hrs: Collect Endpoints: RNA; Immunofluorescence; Adherent Titer; etc.
Barrier function is an indicator of epithelial cell health in the intestine. […] Each bacteria strain was added (inoculated) on chip at a concentration of 1×10^6 mL^−1.
FIG. 44A Bacterial Titration (counts mL^−1) at Day 3 and Day 4 compared to adherent counts at Day 4.
Bacterial Titration. Viable, aerotolerant bifidobacterial strains colonized the Caco-2 Intestine-Chip and could be detected in plate Titers.

C[C@@H](O)[C@H]1C(=O)N2C(C(=O)O)=C(SCCN=CN)C[C@H]12 [Imipenem] was tested, and the “permeability of airway cells to the drug” value [1] was “impermeable”.

In the case of C[C@]12C=CC(=O)C=C1CC[C@@H]1[C@@H]2C(=O)C[C@@]2(C)[C@H]1CC[C@]2(O)C(=O)CO [Prednisone], the inflammatory responses [2] is reported as “suppresses inflammatory responses”.

In the case of CN[C@@H]1C[C@H]2O[C@@](C)([C@@H]1OC)n1c3ccccc3c3c4c(c5c6ccccc6n2c5c31)C(=O)NC4 [staurosporin, Staurosporin], the “apoptotic cell numbers (TUNEL)” value [3] is reported as “increased apoptotic cell numbers”.

In the case of Lactobacillus rhamnosus strain GG [LGG], the “attachment and biofilm formation” value [4] is reported as “evidence of LGG attachment and biofilm formation”.
